Test results published in patent US20250197420A1, “MACROCYCLIC COMPOUNDS, COMPOSITIONS, AND METHODS OF USING THEREOF” (Sionna Therapeutics Inc., priority 2022, published 2025).
Where two headings read alike, the source gives them in different places.

CCOC(=O)CCc1cccc(C2(C)CCCOC(=O)N(C)C/C=C/c3c(c(F)cc4[nH]ccc34)Oc3ccc(F)c(c3)-c3ncc2[nH]3)c1 (stereo not shown)
ring closure, isolated yield (from CCC[CH2][Sn](/[CH]=C/CN(C)C(=O)OCCCC(C)(c1cccc(CCC(=O)OCC)c1)c1cnc(-c2cc(Oc3c(F)cc4[nH]ccc4c3Br)ccc2F)[nH]1)([CH2]CCC)[CH2]CCC, cc_pd bond, 19-membered ring): 66%

CN1CC(C)(C)CCC[C@](C)(c2cccc(I)c2)c2nc(n(C)n2)-c2cc(ccn2)Oc2c(F)cc3[nH]ccc3c2/C=C/C1=O
ring closure, isolated yield (from CNCC(C)(C)CCC[C@](C)(c1cccc(I)c1)c1nc(-c2cc(Oc3c(F)cc4[nH]ccc4c3/C=C/C(=O)O)ccn2)n(C)n1, amide bond, 19-membered ring, 2 steps): 37%

Cn1nc2nc1-c1cc(ccc1F)Oc1c(F)cc3[nH]ccc3c1CCC(=O)NS(=O)(=O)CC=CCC2(C)c1cccc(Br)c1 (stereo not shown)
ring closure, isolated yield (from C=CCC(C)(c1cccc(Br)c1)c1nc(-c2cc(Oc3c(F)cc4[nH]ccc4c3CCC(=O)NS(=O)(=O)CC=C)ccc2F)n(C)n1, rcm bond, 19-membered ring, Grubbs II (0.2 eq), toluene, 2.4 mM, 65.0 °C, 0.75 h): 60%

Methyl (2S)-3-[3-[(13E)-22,28-difluoro-3,6,10,10-tetramethyl-12,12-dioxo-]9-(p-tolylsulfonyl)-24-oxa-12A6-thia-3,4,11,19,30-pentazapentacyclo[23.3.1.12,5.015,23.016,20]triaconta-1(29),2(30),4,13,15,17,20,22,25,27-decaen-6-yl]phenyl]-2-methyl-propanoate
ring closure, isolated yield (cc_pd bond, 18-membered ring, Pd(PtBu3)2/TEA, toluene, 1.75 mM, 100.0 °C): 65%
